Two compounds from patent US6403810B2, “Thiophene derivatives” (Hoffmann-La Roche Inc., priority 2000, dated 2002) can be followed below.

One may read the melting point as the temperature of the solid-liquid transition.

For data set [1], the system named is rat elastase-induced emphysema. In words: Repair of alveoli in elastase-induced emphysema (rat model). The class given is in vivo, male Sprague Dawley rats. As to conditions: oral, once daily starting 21 days post elastase injury, morphometric analysis of lung sections. The protocol:
A RAR selective agonist according to the invention was evaluated for its effects on alveolar repair in a rat model for rat elastase-induced emphysema in accordance to D. Massaro et al. Nature Medicine1997, 3, 675. Animals were divided into treatment groups of approximately eight. Lung inflammation and alveolar damage was induced in male Sprague Dawley rats by a single instillation of pancreatic elastase(porcine derived, Calbiochem) 2 U/gram body mass. Three weeks post injury, all-trans retinoic acid or RAR agonist test compound was dissolved in dimethyl-sulfoxide (20 mg/ml) and stored at −20 C. Fresh working stocks were prepared daily by dilution in PBS to a final concentration of 2mg/ml. Animals were dosed once daily with the retinoid by intraperitoneal injection or orally, starting 21 days post injury. Control groups were challenged with elastase and 21 days later treated with Vehicle (DMSO/PBS) for 14 days. Animals were sacrificed 24 hours after the last dose by exsanguination under deep anesthesia.
The lungs were inflated with 10% neutral buffered formalin by intratracheal instillation at a constant rate (1 ml/gram body mass/min). The lung was excised and immersed in fixative for 24 hours prior to processing. Standard methods were used to prepare 5 μm paraffin sections. Sections were stained with Hematoxylin and Eosin (H%E). Computerized Morphometric analysis was performed to determine the average alveolar size and alveolar number.

Turning to `CCCCCCc1cc2c(cc1/C=C/c1ccc(C(=O)O)s1)C(C)(C)CCC2(C)C` [Example 9, (E)-5-[2-(3-Hexyl-5,5,8,8-tetramethyl-5,6,7,8-tetrahydro-naphthalen-2-yl)-vinyl]-thiophene-2-carboxylic Acid], the “% repair area” value in data set [1] (dose 0.0001 mg/kg) came out at 38%; in data set [1] (dose 0.001 mg/kg) it was 42%; in data set [1] (dose 0.01 mg/kg), 18%; in data set [1] (dose 0.1 mg/kg), 42%.
The compound `CCCCCc1cc2c(cc1/C=C/c1ccc(C(=O)O)s1)C(C)(C)CCC2(C)C` [Example 9.2, (E)-5-[2-(3-pentyl-5,5,8,8-tetramethyl-5,6,7,8-tetrahydro-naphthalen-2-yl)-vinyl]thiophene-2-carboxylic acid] displayed a melting point of 176 to 177 °C.
